Laboratory results taken from patent US5368712A, “Biologically mimetic synthetic ion channel transducers” (Synporin Technologies, Inc., priority 1990, dated 1994).
Where “and” joins values, the source holds several entries; their conditions need not be identical. Equal values may be shown once. Entries after “also recorded” stand apart in the source; their conditions may differ.

Key:
[1] = Single channel recordings of synthetic channel proteins in lipid bilayers; settings: for formation of ionic channels in lipid bilayers: single channel recordings in lipid bilayers
Experimental: Using established recording, filtering, digitizing and data processing techniques, single channel recording were made of single channel recordings for tethered tetrameric M2δ proteins and free M2δ proteins (FIGS. 7 and 8 respectively). Conductance (V) and lifetime (T) values were determined from a multiplicity of events, and single channel open and closed lifetimes were discriminated using a published pattern recognition algorithm.
These recordings were made in symmetric 0.5M KCl (pH 7.4) and recorded at 100 mV. […] These were recorded at 0.5M NaCl (pH 7.2) and 100 mV.
Planar lipid bilayers into which the synthetic ion protein channels can be incorporated are prepared using commonly available and well understood lipids and bilayer formation techniques. For example, planar bilayers can be formed by hydrophobic apposition of two lipid monolayers initially formed at an air-water interface. The electrical properties of such protein-free bilayers can be examined using known techniques. Peptides can be incorporated into the bilayers from mixed lipid-peptide monolayers.

[2] = target: T1, tetrameric M2δ synthetic porin (Tetronarce californica, UniProt P02718); assay: Block of tetrameric M2δ synthetic porin by a local anaesthetic derivative, single channel recordings; format: biochemical, Torpedo californica; settings: 25 μM QX-222
T1 construct: multi-functional carrier template (peptide backbone of at least seven amino acids with four basic attachment residues); made in house; host or cells: chemical peptide synthesis (no expression host)
Experimental: Furthermore, the pharmacological specificity of the pure structure generated by the tetrameric M2δ synthetic porin was examined by using a quaternary derivative (QX-222) of the local anaesthetic lidocaine. QX-222 is known to transiently block the flow of current through the AChR channel, thereby reducing the channel open lifetime. FIGS. 9A and […] show comparative single channel recordings of this synthetic porin before (FIG. 9A) and after (FIG. 9B) addition of 25 μM QX-222. The result is that the characteristic brief and long open lifetimes exist prior to application of the anaesthetic, as previously shown in FIG. 7.

## 9 amino acid backbone used as template: nine-residue carrier template K K K P G K E K G without attached oligopeptides (KKKPGKEKG)
[1]
  formation of ionic channels in lipid bilayers: showed similar activity

## Cc1cccc(C)c1NC(=O)C[N+](C)(C)C [QX-222]
[2]
  effect on channel open time: drastically shortened
  effect on single channel conductance V: virutally unaffected

## XPDWNWLDFTVITFAYVTEFVDL [22-residue synthetic peptide that mimics the electrical properties of a voltage dependent sodium channel]
[1]
  selectivity cations versus anions: discriminates cations over anions
  selectivity sodium ion versus potassium ion: nonselective between sodium ion and potassium ion
  single channel open and close lifetimes: in the millisecond time range
  voltage dependence: no specific voltage dependence
[1]; 0.5M sodium chloride
  single channel conductance of the most frequent event: 20 pS

## EKMSTAISVLLAQAVFLLLTSQR [free (monomeric) M2δ, untethered 23-mer synthetic peptide mimicking the acetylcholine receptor M2δ subunit]
[1]; 0.5M NaCl (pH 7.2), 100 mV
  single channel conductance V of distinct events: 20 pS and 40 pS
[1]
  formation of ionic channels in lipid bilayers: form discrete ion channels in lipid bilayers; also recorded: forms channels of heterogeneous amplitudes and open lifetimes
